Patent publication US7390795B2, “Treatment and prevention of tissue damage” (Pentraxin Therapeutics Limited, priority 2000, dated 2008)
Where two headings read alike, the source gives them in different places.

Experiments:
C-reactive protein (CRP) = biological target: T1, C-reactive protein (CRP) (Homo sapiens, UniProt P02741); assay: Inhibition of binding of 125I radiolabelled CRP to enzyme modified low density lipoprotein immobilized in microtitre plates
T1 construct: from tissue; host or cells: Human material
T1 sequence (P02741 19-224): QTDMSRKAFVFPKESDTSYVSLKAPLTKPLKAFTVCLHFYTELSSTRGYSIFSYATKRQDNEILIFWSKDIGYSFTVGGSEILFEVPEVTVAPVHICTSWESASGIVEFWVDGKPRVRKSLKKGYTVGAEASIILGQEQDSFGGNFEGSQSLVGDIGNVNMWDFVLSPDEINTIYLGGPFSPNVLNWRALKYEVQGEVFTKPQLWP
Description: Screening for Inhibitors of Binding of ^125I Radiolabelled CRP to Enzyme Modified Low Density Lipoprotein Immobilized in Microtitre Plates. […] However, likely critical ligands of importance in vivo in the pathogenesis of atherothrombosis, are modified forms of low density lipoprotein. […] All wells were then washed three times with 200 μl volumes of PBS before blocking by incubation for 1 h at room temperature with 100 μl per well of 0.2 m Tris pH 8.0. The wells were then washed again 3 times with 200 μl volumes of PBS and finally emptied before adding to each one 100 μl volumes of the following reagents.

[1] = system: experimental acute myocardial infarction produced by coronary artery ligation
Text: Induction and Measurement of Myocardial Infarction. Female Wistar rats bred at ICSM, Hammersmith campus were used at age 9-10 wk and weighed 230-280 g. […] All animals were carefully examined and were healthy before being fasted overnight prior to surgery. General anesthesia was induced with inhaled isoflurane and supplemental oxygen was provided at 1.0 liter/min. The chest was opened through the sixth intercostal space, anesthesia was discontinued but supplemental oxygen continued at 0.5 liter/min, and the pericardium was opened to allow the heart to be lifted cut of the thorax. The left anterior descending coronary artery was immediately ligated at a constant distance just below the atrium with a 5/0 silk suture, the heart was replaced and the chest closed whilst active ventilation with 100% oxygen was continued. The duration of pneumothorax was about 30 s. […] Buprenorphine 0.05 mg/kg was given immediately for post-operative analgesia and repeated 12 hourly.
Deep anesthesia was induced with isoflurane and the hearts were excised while still beating in sinus rhythm and immediately arrested in diastole by immersion in 10 ml of 30 mM KCl. They were then cleaned of any extraneous adherent tissue and weighed before being briefly chilled at −20° C. to produce sufficient rigidity to facilitate cutting into defined sections. Each heart was cut into four slices of equal thickness perpendicular to the course of the left coronary artery, starting from the apex of the heart and ending at the position of the ligature around that artery. These slices were designated A, B, C, and D starting from the apex, and each was washed with pure water and then immersed in 0.02 M phosphate buffer pH 7.4 containing 0.5 mg/ml of nitroblue tetrazolium (NBT) (Sigma) at 37° C. for 30 min. NBT stains viable but not infarcted myocardium.
After staining with NBT the slices were washed briefly in cold water before fixation in 10% buffered formalin for 48 h, and the proximal cut surface of each slice was then imaged under standard conditions with a high resolution digital camera. The captured images were coded and analyzed ‘blind’ without knowledge by the operators of the treatment received by the rat in question. Lines were drawn around the total area of the slice, the NBT negative infarct zone, and any parts of the image to be excluded from the estimation including valves, chordae tendinae, shadows and edges, and the area of the infarct was determined as a percentage of the total area. […] Statistical significance of differences between infarct sizes in different treatment groups within each experiment were sought by one way ANOVA and by Bonferroni t-tests.
In Vivo Treatments. […] Human CRP or SAP were injected i.p. at 40 mg/kg 1 h after coronary artery ligation and then at 24 h intervals until the rats were killed on day 5. The proteins were dissolved in 10 mM Tris, 140 mM NaCl, pH 8.0, also containing 2 mM CaCl2 in the case of human CRP, and the control rats received injections of the buffer alone at the same intervals.

[2] = Plasma clearance and serum concentration of injected human CRP and SAP in rats
Description: Human CRP or SAP were injected i.p. at 40 mg/kg 1 h after coronary artery ligation and then at 24 h intervals until the rats were killed on day 5. The proteins were dissolved in 10 mM Tris, 140 mM NaCl, pH 8.0, also containing 2 mM CaCl2 in the case of human CRP, and the control rats received injections of the buffer alone at the same intervals. […] Plasma clearance of human CRP was also studied in the same protocol in normal unoperated rats that had received cobra venom factor 24 h previously.

[3] = Experiment 2, 40 mg/kg i.p. 1 h after ligation then every 24 h, day 5
[4] = Experiment 2, 5 rats treated, 40 mg/kg i.p. daily

Compound | Inhibition of CRP binding to enzyme modified LDL, in words (C-reactive protein (CRP)) | Percent inhibition of binding of radiolabelled CRP to immobilized enzyme modified low density lipoprotein (C-reactive protein (CRP); compound molarity 1 μM) | Percent inhibition of binding of radiolabelled CRP to immobilized enzyme modified low density lipoprotein (C-reactive protein (CRP); compound molarity 10 μM) | Percent inhibition of binding of radiolabelled CRP to immobilized enzyme modified low density lipoprotein (C-reactive protein (CRP); compound molarity 100 μM) | Percent inhibition of binding of radiolabelled CRP to immobilized enzyme modified low density lipoprotein (C-reactive protein (CRP); compound molarity 1 mM) | Percent inhibition of binding of radiolabelled CRP to immobilized enzyme modified low density lipoprotein (C-reactive protein (CRP); compound molarity 10 mM) | Infarct size mean (SD) % [1, 3] | Day 5 survivors [1, 4] | other results
O=C(O)CN(CCN(CC(=O)O)CC(=O)O)CC(=O)O [EDTA] | All binding was inhibited | – | – | – | – | – | – | – | –
CCCCCCCCCCCCCCCCOP(=O)([O-])OCC[N+](C)(C)C [Hexadecyl phosphocholine, hexadecyl phosphocholine] | – | 0 | 0 | 76 | 73 | 94 | – | – | IC50 for inhibition of CRP binding to enzyme modified LDL (C-reactive protein (CRP); stated in words): in the micromolar range
NCCOP(=O)(O)O [Phosphoethanolamine, phosphoethanolamine] | inhibition at high concentration, but only modest effects when diluted | 0 | 0 | 39 | 90 | 92 | – | – | –
N[C@@H](COP(=O)(O)O)C(=O)O [Phosphoserine, phosphoserine] | – | 0 | 0 | 0 | 0 | 38 | – | – | –
Human CRP: isolated pure human C-reactive protein, a plasma pentraxin | – | – | – | – | – | – | 17.6 (0.4) % | 3 | Infarct size mean (SD) % ([1]; Experiment 1, 40 mg/kg i.p. 1 h after ligation then every 24 h, day 5): 21.2 (2.0) %; Day 5 survivors ([1]; Experiment 1, 5 rats treated, 40 mg/kg i.p. daily): 4; Day 5 survivors ([1]; Table 3 experiment, 5 or 6 rats treated): 3; Infarcts larger than in control untreated animals ([1]; complement sufficient rats, day 5, Table 3 experiment): approximately 40%; Clinical condition ([1]; coronary artery ligated rats, 40 mg/kg i.p.): rapidly became clinically less well than buffer-treated controls; Infarcts larger than in control rats treated with buffer or human SAP ([1]; day 5, Table 2 experiments): about 40%; Effect on the reduced infarct size in decomplemented rats ([1]; rat, in vivo): no effect at all; Infarct size mean (SD) % ([1]; rat, in vivo): 19.7 (1.6) %; Clinical condition ([1]; rats not operated on, same doses): absolutely no ill effects; Serum concentration of the injected protein ([2]; coronary artery ligated rats killed 24 h after the last of 5 daily 40 mg/kg i.p. injections): 13000 to 53000 ng/mL; Plasma clearance in decomplemented rats ([2]; single 40 mg/kg i.p., cobra venom factor 250 U/kg 24 h beforehand, unoperated rats): not affected by complement depletion
Human SAP: human serum amyloid P component, pentraxin closely related to CRP | – | – | – | – | – | – | 12.4 (1.9) % | 5 | Clinical condition ([1]; normal or coronary artery ligated rats): no adverse clinical effects
